The source of these data is US20230348442A1, “GALECTIN-3 INHIBITING 2-HYDROXYCYCLOALKANE-1-CARBAMOYL DERIVATIVES” (Idorsia Pharmaceuticals Ltd, priority 2020, published 2023).

By IC50 is commonly meant the point on the concentration scale where inhibition reaches its midpoint.

Chain of human Gal-3 (hGal-3) (P17931 whole entry): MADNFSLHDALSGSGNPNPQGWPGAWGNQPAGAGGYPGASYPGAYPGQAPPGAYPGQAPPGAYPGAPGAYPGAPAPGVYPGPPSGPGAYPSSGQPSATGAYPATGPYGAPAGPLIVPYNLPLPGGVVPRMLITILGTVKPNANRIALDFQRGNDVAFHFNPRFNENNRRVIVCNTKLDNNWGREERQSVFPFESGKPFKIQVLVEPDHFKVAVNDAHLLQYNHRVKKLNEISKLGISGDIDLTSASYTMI

The target of the test is human Gal-3 (hGal-3) (Homo sapiens (Human), UniProt P17931). The test can be described thus: competitive binding assay: binding of biotinylated hGal-3 to microplate-adsorbed asialofetuin (ASF), spectrophotometric. The following applies: Activity on hGal-3; mean values of several measurements. The method, then:
Evaluation of Compound Inhibitory Activity (IC50)
The inhibitory activity of compounds is determined in competitive binding assays. This spectrophotometric assay measures the binding of biotinylated human Gal-3 (hGal-3) or human Gal-1 (hGal-1), respectively, to a microplate-adsorbed glycoprotein, asialofetuin (ASF) (Proc Natl Acad Sci USA. 2013 Mar. 26; 110(13):5052-7.). Alternatively, and preferably, a human Gal-1 version in which all six cysteines are substituted by serines may be used.
Briefly, compounds are serially diluted in DMSO (working dilutions). ASF-coated 384 well plates are supplemented with 22.8 μL/well of biotinylated hGal-3 or hGal-1 in assay buffer (i.e. 300-1000 ng/mL biotinylated hGal-3 or hGal-1) to which 1.2 μL of compound working dilutions are added and mixed.
Plates are incubated for 3 hours at 4° C., then washed with cold assay buffer (3×50 uL), incubated for 1 hour with 25 μL/well of a streptavidin-peroxidase solution (diluted in assay buffer to 80 ng/mL) at 4° C., followed by further washing steps with assay buffer (3×50 uL). Finally, 25 μL/well of ABTS substrate is added.
The calculated IC50 values may fluctuate depending on the daily assay performance. Fluctuations of this kind are known to those skilled in the art. IC50 values from several measurements are given as mean values.
`CO[C@@H]1[C@@H](n2cc(-c3ccc(C#N)c(F)c3)nn2)[C@@H](O)[C@@H](CO)O[C@H]1C(=O)N(c1cc(Cl)cc(C#N)c1)[C@H]1CCC[C@@H]1O` [Example 1.16.4, (2R,3R,4S,5R,6R)-N-(3-chloro-5-cyanophenyl)-4-(4-(4-cyano-3-fluorophenyl)-1H-1,2,3-triazol-1-yl)-5-hydroxy-N-((1S,2S)-2-hydroxycyclopentyl)-6-(hydroxymethyl)-3-methoxytetrahydro-2H-pyran-2-carboxamide] showed an IC50 of 102 nM. That is a sub-micromolar value. The same measure for `COc1cc(-c2cn([C@H]3[C@@H](O)[C@@H](CO)O[C@@H](C(=O)N(c4cc(C)cc(Br)c4)[C@@H]4CC[C@H]4O)[C@@H]3OC)nn2)cc(F)c1F` [Example 2.3.12R, (2R,3R,4S,5R,6R)-N-(3-bromo-5-methylphenyl)-4-(4-(3,4-difluoro-5-methoxyphenyl)-1H-1,2,3-triazol-1-yl)-5-hydroxy-N-((1R,2R)-2-hydroxycyclobutyl)-6-(hydroxymethyl)-3-methoxytetrahydro-2H-pyran-2-carboxamide]: 311 nM; for `CO[C@@H]1[C@@H](n2cc(-c3cc(F)c(F)c(Cl)c3)nn2)[C@@H](O)[C@@H](CO)O[C@H]1C(=O)N(c1cc(Cl)cc(C#N)c1)[C@H]1CCC[C@@H]1O` [Example 1.7.4, (2R,3R,4S,5R,6R)-4-(4-(3-chloro-4,5-difluorophenyl)-1H-1,2,3-triazol-1-yl)-N-(3-chloro-5-cyanophenyl)-5-hydroxy-N-((1S,2S)-2-hydroxycyclopentyl)-6-(hydroxymethyl)-3-methoxytetrahydro-2H-pyran-2-carboxamide]: 33.4 nM; for `CO[C@@H]1[C@@H](n2cc(-c3cc(F)c(Br)c(F)c3)nn2)[C@@H](O)[C@@H](CO)O[C@H]1C(=O)N(c1cc(Cl)cc(C#N)c1)[C@H]1CCC[C@@H]1O` [Example 1.6.4, (2R,3R,4S,5R,6R)-4-(4-(4-bromo-3,5-difluorophenyl)-1H-1,2,3-triazol-1-yl)-N-(3-chloro-5-cyanophenyl)-5-hydroxy-N-((1S,2S)-2-hydroxycyclopentyl)-6-(hydroxymethyl)-3-methoxytetrahydro-2H-pyran-2-carboxamide]: 28.6 nM.

As to `CO[C@@H]1[C@@H](n2cc(-c3cc(F)c(F)c(F)c3)nn2)[C@@H](O)[C@@H](CO)O[C@H]1C(=O)N(c1cc(Br)cc(Br)c1)[C@H]1CCC[C@@H]1O` [Example 1.1.11, (2R,3R,4S,5R,6R)-N-(3,5-dibromophenyl)-5-hydroxy-N-((1S,2S)-2-hydroxycyclopentyl)-6-(hydroxymethyl)-3-methoxy-4-(4-(3,4,5-trifluorophenyl)-1H-1,2,3-triazol-1-yl)tetrahydro-2H-pyran-2-carboxamide], the IC50 came out at 31 nM. The compound `CO[C@@H]1[C@@H](n2cc(-c3cc(F)cc(Br)c3)nn2)[C@@H](O)[C@@H](CO)O[C@H]1C(=O)N(c1cc(Cl)cc(C#N)c1)[C@@H]1CCC[C@H]1O` [Example 1.10.4R, (2R,3R,4S,5R,6R)-4-(4-(3-bromo-5-fluorophenyl)-1H-1,2,3-triazol-1-yl)-N-(3-chloro-5-cyanophenyl)-5-hydroxy-N-((1R,2R)-2-hydroxycyclopentyl)-6-(hydroxymethyl)-3-methoxytetrahydro-2H-pyran-2-carboxamide] displayed an IC50 of 699 nM.

`CO[C@@H]1[C@@H](n2cc(-c3cc(F)c(F)c(F)c3)nn2)[C@@H](O)[C@@H](CO)O[C@H]1C(=O)N(c1cc(Cl)cc(Cl)c1)[C@H]1CCC[C@@H]1O` [Example 1.1.2, (2R,3R,4S,5R,6R)-N-(3,5-dichlorophenyl)-5-hydroxy-N-((1S,2S)-2-hydroxycyclopentyl)-6-(hydroxymethyl)-3-methoxy-4-(4-(3,4,5-trifluorophenyl)-1H-1,2,3-triazol-1-yl)tetrahydro-2H-pyran-2-carboxamide]: the IC50 amounted to 37.4 nM. Turning to `CO[C@@H]1[C@@H](n2cc(-c3ccc(Cl)c(Cl)c3)nn2)[C@@H](O)[C@@H](CO)O[C@H]1C(=O)N(c1cc(Br)cc(C#N)c1)[C@@H]1CC[C@H]1O` [Example 2.8.5R, (2R,3R,4S,5R,6R)-N-(3-bromo-5-cyanophenyl)-4-(4-(3,4-dichlorophenyl)-1H-1,2,3-triazol-1-yl)-5-hydroxy-N-((1R,2R)-2-hydroxycyclobutyl)-6-(hydroxymethyl)-3-methoxytetrahydro-2H-pyran-2-carboxamide], the IC50 amounted to 446 nM. This IC50 lies about 12-fold higher than the previous one. The compound `CO[C@@H]1[C@@H](n2cc(-c3cc(F)cc(Br)c3)nn2)[C@@H](O)[C@@H](CO)O[C@H]1C(=O)N(c1cc(C)cc(C#N)c1)[C@@H]1CCC[C@H]1O` [Example 1.10.8R, (2R,3R,4S,5R,6R)-4-(4-(3-bromo-5-fluorophenyl)-1H-1,2,3-triazol-1-yl)-N-(3-cyano-5-methylphenyl)-5-hydroxy-N-((1R,2R)-2-hydroxycyclopentyl)-6-(hydroxymethyl)-3-methoxytetrahydro-2H-pyran-2-carboxamide] yielded an IC50 of 1120 nM.

On to `CC(=O)O[C@@H]1[C@@H](n2cc(-c3cc(F)c(F)c(F)c3)nn2)[C@@H](O)[C@@H](CO)O[C@H]1C(=O)N(c1cc(Cl)cc(C#N)c1)[C@H]1CCC[C@@H]1O` [Example 1A.1.4, (2R,3R,4S,5R,6R)-2-((3-chloro-5-cyanophenyl)((1S,2S)-2-hydroxycyclopentyl)carbamoyl)-5-hydroxy-6-(hydroxymethyl)-4-(4-(3,4,5-trifluorophenyl)-1H-1,2,3-triazol-1-yl)tetrahydro-2H-pyran-3-yl acetate], for which the IC50 came out at 25.3 nM. The same measure for `CO[C@@H]1[C@@H](n2cc(-c3cc(F)c(F)c(F)c3)nn2)[C@@H](O)[C@@H](CO)O[C@H]1C(=O)N(c1cccc(I)c1)[C@H]1CCC[C@@H]1O` [Example 1.1.6, (2R,3R,4S,5R,6R)-5-hydroxy-N-((1S,2S)-2-hydroxycyclopentyl)-6-(hydroxymethyl)-N-(3-iodophenyl)-3-methoxy-4-(4-(3,4,5-trifluorophenyl)-1H-1,2,3-triazol-1-yl)tetrahydro-2H-pyran-2-carboxamide]: 42.4 nM. Under `CO[C@@H]1[C@@H](n2cc(-c3ccc(C#N)c(F)c3)nn2)[C@@H](O)[C@@H](CO)O[C@H]1C(=O)N(c1cc(Cl)cc(C#N)c1)[C@@H]1CCC[C@H]1O` [Example 1.16.4R, (2R,3R,4S,5R,6R)-N-(3-chloro-5-cyanophenyl)-4-(4-(4-cyano-3-fluorophenyl)-1H-1,2,3-triazol-1-yl)-5-hydroxy-N-((1R,2R)-2-hydroxycyclopentyl)-6-(hydroxymethyl)-3-methoxytetrahydro-2H-pyran-2-carboxamide] stands 978 nM; under “(2R,3R,4S,5R,6R)-N-(3,5-dichlorophenyl)-3,5-dihydroxy-N-((1S,2S)-2-hydroxycyclopentyl)-6-(hydroxymethyl)-4-(4-(3,4,5-trifluorophenyl)-1H-1,2,3-triazol-1-yl)tetrahydro-2H-pyran-2-carboxamide [Example 1H.1.2]”, 29.4 nM; under `CO[C@@H]1[C@@H](n2cc(-c3cc(F)c(F)c(F)c3)nn2)[C@@H](O)[C@@H](CO)O[C@H]1C(=O)N(c1cc(Cl)cc(Cl)c1)[C@@H]1CCC[C@H]1O` [Example 1.1.2R, (2R,3R,4S,5R,6R)-N-(3,5-dichlorophenyl)-5-hydroxy-N-((1R,2R)-2-hydroxycyclopentyl)-6-(hydroxymethyl)-3-methoxy-4-(4-(3,4,5-trifluorophenyl)-1H-1,2,3-triazol-1-yl)tetrahydro-2H-pyran-2-carboxamide], 104 nM. The same measure for `CO[C@@H]1[C@@H](n2cc(-c3ccc(C#N)c(F)c3)nn2)[C@@H](O)[C@@H](CO)O[C@H]1C(=O)N(c1cc(Br)cc(C#N)c1)[C@H]1CCC[C@@H]1O` [Example 1.16.5, (2R,3R,4S,5R,6R)-N-(3-bromo-5-cyanophenyl)-4-(4-(4-cyano-3-fluorophenyl)-1H-1,2,3-triazol-1-yl)-5-hydroxy-N-((1S,2S)-2-hydroxycyclopentyl)-6-(hydroxymethyl)-3-methoxytetrahydro-2H-pyran-2-carboxamide]: 62 nM. On to `CO[C@@H]1[C@@H](n2cc(-c3ccc(C)c(F)c3)nn2)[C@@H](O)[C@@H](CO)O[C@H]1C(=O)N(c1cc(Br)cc(C#N)c1)[C@H]1CCC[C@@H]1O` [Example 1.13.5, (2R,3R,4S,5R,6R)—N-(3-bromo-5-cyanophenyl)-4-(4-(3-fluoro-4-methylphenyl)-1H-1,2,3-triazol-1-yl)-5-hydroxy-N-((1S,2S)-2-hydroxycyclopentyl)-6-(hydroxymethyl)-3-methoxytetrahydro-2H-pyran-2-carboxamide], for which the IC50 is 17.1 nM. This IC50 lies about 3.6-fold lower than the previous one. In turn, `CO[C@@H]1[C@@H](n2cc(-c3cc(F)c(F)c(F)c3)nn2)[C@@H](O)[C@@H](CO)O[C@H]1C(=O)N(c1cc(C)cc(Br)c1)[C@@H]1CCC[C@H]1O` [Example 1.1.12R, (2R,3R,4S,5R,6R)-N-(3-bromo-5-methylphenyl)-5-hydroxy-N-((1R,2R)-2-hydroxycyclopentyl)-6-(hydroxymethyl)-3-methoxy-4-(4-(3,4,5-trifluorophenyl)-1H-1,2,3-triazol-1-yl)tetrahydro-2H-pyran-2-carboxamide] registered an IC50 of 348 nM.
